In article PMC8605905 (Oxidative Medicine and Cellular Longevity, 2021):

Key:
Aβ-GFP SH-SY5Y cells [1] = assay: High content analysis of Aβ-GFP fluorescence; assay type: cell-based, Human
Protocol: Human neuroblastoma SH-SY5Y-derived Aβ-GFP [23] and ∆K280 tauRD-DsRed cells were kept in DMEM/nutrient mixture F12 (DMEM/F12) containing 10% FBS, 5 μg/ml blasticidin, and 100 μg/ml hygromycin (InvivoGen, San Diego, CA, USA). Doxycycline (Sigma-Aldrich) was applied to induce the expression of Aβ-GFP (5 μg/ml doxycycline) or ∆K280 tauRD-DsRed (2 μg/ml doxycycline).
On day 1, Aβ-GFP or ∆K280 tauRD-DsRed SH-SY5Y cells were seeded into 96-well plates (2.5 × 10^4/well) and treated with retinoic acid (10 μM; Sigma-Aldrich) to prompt neuronal differentiation. […] Image Acquisition and Analysis Software (MetaXpress) (Molecular Devices, Sunnyvale, CA, USA) was used to analyse the images. CellROX Orange (5 μM; Molecular Probes, Eugene, OR, USA) (for Aβ-GFP cells) or dichloro-dihydro-fluorescein diacetate (DCFH-DA, 10 μM; Invitrogen) (for ∆K280 tauRD-DsRed cells) was added to the cells and incubated at 37°C for 30 min.

Aβ-GFP SH-SY5Y cells [2] = assay: ROS assay (CellROX Orange) in Aβ-GFP cells; assay type: cell-based, Human; settings: tested 1.2–5 μM
Protocol: On day 1, Aβ-GFP or ∆K280 tauRD-DsRed SH-SY5Y cells were seeded into 96-well plates (2.5 × 10^4/well) and treated with retinoic acid (10 μM; Sigma-Aldrich) to prompt neuronal differentiation. […] On day 8, cells were stained with Hoechst 33342 (0.1 μg/ml; Sigma-Aldrich) for 30 min, and cell images were automatically captured at excitation/emission wavelengths of 482/[…] (GFP fluorescence) or 543/593 nm (DsRed fluorescence) using a high content analysis (HCA) system (Micro Confocal High-Content Imaging System). Image Acquisition and Analysis Software (MetaXpress) (Molecular Devices, Sunnyvale, CA, USA) was used to analyse the images. CellROX Orange (5 μM; Molecular Probes, Eugene, OR, USA) (for Aβ-GFP cells) or dichloro-dihydro-fluorescein diacetate (DCFH-DA, 10 μM; Invitrogen) (for ∆K280 tauRD-DsRed cells) was added to the cells and incubated at 37°C for 30 min. The HCA system was used to measure intracellular ROS at 531/593 nm (CellROX Orange fluorescence) or 482/536 nm (DCFH-DA fluorescence) of excitation/emission wavelengths.

Aβ-GFP SH-SY5Y cells [3] = assay: Real-time PCR of Aβ-GFP RNA; assay type: cell-based, Human; settings: 5 μM
Protocol: To measure the Aβ-GFP/tauRD-DsRed RNA expression on day 8, total RNA was extracted from collected cells and reverse-transcribed to cDNA (SuperScript III reverse transcriptase; Invitrogen, Waltham, MA, USA). Real-time quantitative PCR was performed using 100 ng of cDNA and the gene-specific TaqMan fluorogenic probe PN4331348 (EGFP) or customized Assays-by-Design probe for DsRed and 4326321E (HPRT1) (StepOnePlus Real-time PCR system, Applied Biosystems, Foster City, CA, USA). The RNA expression level was calculated using the formula 2^ΔCt, ΔCT = CT (control) − CT (target), in which CT indicates the cycle threshold.

caspase 1 = assay: Caspase 1 activity in Aβ-GFP cells; assay type: cell-based, Human; settings: 5 μM, vs untreated cells
Protocol: (§1) Aβ-GFP or ∆K280 tauRD-DsRed SH-SY5Y cells were seeded into 6-well plates (5 × 10^5/well) and treated with retinoic acid, coumarin-chalcone derivatives, and doxycycline as previously described. On day 8, cells were collected and lysates were prepared with six freeze/thaw cycles. The supernatant was collected by centrifugation, followed by measurement of the caspase 1 activity in 50 μg aliquots of cell extract using the ICE fluorometric assay kit (BioVision, Milpitas, CA, USA). Following incubation of the mixture at 37°C for 2 h, fluorescence was measured with excitation/emission wavelengths at 400/505 nm (FLx800 fluorescence microplate reader). In addition, the collected cells were lysed by sonication. Acetylcholinesterase (AChE) activity in the supernatant was determined in 10 μg aliquots of cell extracts using the AChE activity assay kit (Sigma-Aldrich) according to the manufacture's protocol. Finally, the absorbance at 412 nm was measured using a Multiskan GO spectrophotometer (Thermo Fisher Scientific).

[4] = test system: Acetylcholinesterase (AChE); assay: AChE activity in Aβ-GFP cells; assay type: cell-based; settings: 5 μM, vs untreated cells
Protocol: as §1

Aβ-GFP SH-SY5Y cells [5] = assay: High content analysis of neurite outgrowth in Aβ-GFP cells; assay type: cell-based, Human; settings: 5 μM
Protocol: On day 1, Aβ-GFP or ∆K280 tauRD-DsRed SH-SY5Y cells were plated into 24-well plates (6 × 10^4/well) followed by addition of retinoic acid. On day 2, cells were treated with coumarin-chalcone derivatives (5 or 10 μM) and with doxycycline (5 or 2 μg/ml) to induce the expression of Aβ-GFP or ∆K280 tauRD-DsRed. On day 8, 4% paraformaldehyde, 0.1% Triton X-100, and 3% BSA were used to fix, permeabilize, and block cells, respectively. Subsequently, the cells were stained with TUBB3 (neuronal class III β-tubulin) primary antibody (1 : 1000; Covance, Princeton, NJ, USA) at 4°C overnight. Goat anti-rabbit Alexa Fluor 555 secondary antibody (1 : 1000; Thermo Fisher Scientific) was then added, followed by a 3 h incubation at room temperature. Following staining nuclei with 4′,-6-diamidino-2-phenylindole (DAPI) (0.1 μg/ml; Sigma-Aldrich), the neurons were imaged by using the HCA system and analysed by using the Neurite Outgrowth Application Module (MetaXpress; Molecular Devices).
(§2) To monitor the cAMP-mediated signal transduction pathway, CRE-GFP 293 cells in 6-well plates (1 × 10^6/well) were pretreated with kinase inhibitor H-89 (LC Laboratories, Woburn, MA, USA), KN-62 (Cayman Chemical, Ann Arbor, MI, USA), U0126 (LC Laboratories), or wortmannin (LC Laboratories) (10 μM) for 4 h before forskolin or LM-021 (10 μM) addition for 5 h. GFP fluorescence/protein and total/phosphorylated PKA, CaMKII, ERK, PI3K, and CREB levels were examined. In addition, Aβ-GFP or ∆K280 tauRD-DsRed SH-SY5Y cells were treated with retinoic acid (10 μM) on day 1, followed by the addition of LM-021 (5 or 10 μM) and doxycycline (5 or 2 μg/ml) on day 2, as described. Kinase inhibitors (10 μM) were added on day 6. On day 8, the cells were collected for protein expression analysis of BDNF, BCL2 (BCL2 apoptosis regulator), and BAX (BCL2 associated X, apoptosis regulator), and total/phosphorylated PKA, CaMKII, ERK, PI3K, and CREB. Also, cells were stained with DAPI and assessed for neurite outgrowth as described above.

CRE-GFP 293 cells = assay: CRE-GFP 293 reporter cell assay (flow cytometry); assay type: cell-based, Human; settings: 10 μM, 5 h, in the presence of Ca2+ ionophore (2 μM)
From the text: Using the pCRE-MetLuc2-Reporter plasmid (Clontech, Mountain View, CA, USA) as a template, the DNA fragment containing the cAMP response element (CRE) motifs and TATA-like promoter (PTAL) flanked by MluI and AgeI restriction sites was amplified by PCR using sense ([…], MluI site underlined) and antisense ([…], AgeI site underlined) primers. The amplified CRE-PTAL promoter fragment was cloned into pGEM-T Easy (Promega, Madison, WI, USA) and sequenced. The CRE-PTAL-containing MluI/AgeI fragment and GFP-containing AgeI/NotI fragment (from pEGFP-N1; Clontech) were subcloned into MluI- and NotI-digested pcDNA5/FRT/TO (Novagen, Madison, WI, USA). The resulting construct with CRE-PTAL-driving GFP was used to establish 293 GFP reporter cells by targeting insertion into Flp-In-293 cells according to the supplier's instructions (Invitrogen). The cells were grown in a medium containing 5 μg/ml blasticidin and 100 μg/ml hygromycin.
On day 1, CRE-GFP 293 cells were seeded into 48-well plates (5 × 10^4/well). After 24 h, cells were treated with Ca^2+ ionophore (2 μM) (Sigma-Aldrich) for 0–24 h. Cell viability was measured using 3,(4,5-dimethylthiazol-2-yl)-2,5-diphenyltetrazolium bromide (MTT) assay (Sigma-Aldrich). The absorbance of the insoluble purple formazan dye was quantified at 570 nm on a μQuant microplate spectrophotometer (Bio-Tek). In addition, the cells were treated with the Ca^2+ ionophore A23187 (0.5–10 μM) (Sigma-Aldrich) for 5 h, followed by analysis of GFP fluorescence by flow cytometry (Becton–Dickinson, Franklin Lakes, NJ, USA) with excitation/emission wavelengths at 488/507 nm. To monitor CREB activation, cells were treated with forskolin or coumarin-chalcone derivatives (5–10 μM) in the presence or absence of Ca^2+ ionophore (2 μM) for 5 h, and GFP fluorescence was analysed.
as §2

SMILES	EC50 (Aβ-GFP SH-SY5Y cells [1]; Homo sapiens, SH-SY5Y, read-out: EC50 in Aβ aggregation inhibition (GFP fluorescence))	Concentration significantly augmenting green fluorescence intensity (Aβ-GFP) (Aβ-GFP SH-SY5Y cells [1]; tested 1.2–5 μM, day 8)	Concentration effectively decreasing ROS levels caused by Aβ overexpression (Aβ-GFP SH-SY5Y cells [2])	Aβ-GFP RNA levels (Aβ-GFP SH-SY5Y cells [3])	Caspase 1 activity (caspase 1)	AChE activity [4]	Neurite length, processes, and branches (Aβ-GFP SH-SY5Y cells [5])	CRE-motif-driven GFP expression (CRE-GFP 293 cells)	CRE-motif-driven GFP expression (CRE-GFP 293 cells; listed as forskolin)
COc1cc(/C=C/C(=O)CC(=O)/C=C/c2ccc(O)c(OC)c2)ccc1O [Curcumin, reference compound]	6.1 µM	2.5 to 5 µM	2.5 to 5 µM	did not significantly modify	reduced	reduced	successfully ameliorated		
C=C[C@@]1(C)CC(=O)[C@]2(O)[C@@]3(C)[C@@H](O)CCC(C)(C)[C@@H]3[C@H](O)[C@H](OC(C)=O)[C@@]2(C)O1 [Forskolin, forskolin]								significantly increased	significantly activated
